# From the supplement of paper PMC10307832
# How the values were obtained:
# Experiment in all cases: relative viability (nuclei count vs DMSO), 5 days (fraction); higher = more cells survive
# [1] = compound: O=C(C[C@H]1NCCC[C@@H]1O)Cn1cnc2cc(Br)c(Cl)cc2c1=O (racemic) [Halofuginone] + CC(=O)c1c(C)c2cnc(Nc3ccc(N4CCNCC4)cn3)nc2n(C2CCCC2)c1=O [Palbociclib] (partner 0.5 µM)
# Procedure, shortened: (§1)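 Lung cancer cell lines, seeded in 1536-well plates, were treated the following day by pin tool with a single drug or with five library-drug doses (not always all listed) in √10 steps on top of a fixed anchor-drug dose. Cells were fixed and nuclei stained in one step after 5 days, and nuclei were counted. Relative viability is the nuclei count for treated wells divided by that for vehicle wells, reported as medians of duplicate plates.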
# Cediranib + Luminespib = compound: COc1cc2c(Oc3ccc4[nH]c(C)cc4c3F)ncnc2cc1OCCCN1CCCC1 [Cediranib] + CCNC(=O)c1noc(-c2cc(C(C)C)c(O)cc2O)c1-c1ccc(CN2CCOCC2)cc1 [Luminespib] (partner 0.01 µM)
# Procedure, shortened: as §1
# Decitabine + Navitoclax = compound: Nc1ncn([C@H]2C[C@H](O)[C@@H](CO)O2)c(=O)n1 [Decitabine] + CC1(C)CCC(c2ccc(Cl)cc2)=C(CN2CCN(c3ccc(C(=O)NS(=O)(=O)c4ccc(N[C@H](CCN5CCOCC5)CSc5ccccc5)c(S(=O)(=O)C(F)(F)F)c4)cc3)CC2)C1 [Navitoclax] (partner 0.5 µM)
# Procedure, shortened: as §1
# [2] = compound: O=C(C[C@H]1NCCC[C@@H]1O)Cn1cnc2cc(Br)c(Cl)cc2c1=O (racemic) [Halofuginone] + N=C(N)NC(=N)NCCc1ccccc1 [Phenformin] (partner 250 µM)
# Procedure, shortened: as §1
cell line,measurement,setting,value
UMC-11,relative viability,[1]; first compound 0.001 µM,0.359
same,relative viability,[1]; first compound 0.003162 µM,0.306
same,relative viability,[1]; first compound 0.01 µM,0.322
same,relative viability,[1]; first compound 0.03162 µM,0.316
same,relative viability,[1]; first compound 0.1 µM,0.279
same,relative viability,Cediranib + Luminespib; first compound 0.04 µM,1.14
same,relative viability,Cediranib + Luminespib; first compound 0.4 µM,1.04
same,relative viability,Cediranib + Luminespib; first compound 4 µM,0.903
same,relative viability,Decitabine + Navitoclax; first compound 0.04 µM,0.316
same,relative viability,Decitabine + Navitoclax; first compound 0.1265 µM,0.29
same,relative viability,Decitabine + Navitoclax; first compound 0.4 µM,0.215
same,relative viability,Decitabine + Navitoclax; first compound 1.265 µM,0.162
same,relative viability,Decitabine + Navitoclax; first compound 4 µM,0.145
same,relative viability,[2]; first compound 0.001 µM,0.345
same,relative viability,[2]; first compound 0.003162 µM,0.343
same,relative viability,[2]; first compound 0.01 µM,0.324
same,relative viability,[2]; first compound 0.03162 µM,0.316
same,relative viability,[2]; first compound 0.1 µM,0.267
